The text below walks through data of PubChem BioAssay AID248 (DTP/NCI, 2004).

The assay relates to L1210 leukemia ip in BDF1 mice, survival T/C. Briefly: NCI In Vivo Anticancer Drug Screen. Data for tumor model L1210 Leukemia (intraperitoneal) in B6D2F1 (BDF1) mice. The following applies: endpoint: mean survival time, higher = longer survival. In short, it runs like this:
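Read-out is survival time, reported as the treated-group measurement over the vehicle-control measurement.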

The mark [1] stands for this setting: dose: 100.0 mg/kg/injection, schedule: Q01DX001 (ip), vehicle: carboxymethylcellulose (CMC).
Where [2] appears, read: dose: 100.0 mg/kg/injection, schedule: Q01DX001 (ip), vehicle: saline.
Where [3] appears, read: dose: 100.0 mg/kg/injection, schedule: Q01DX009 (ip), vehicle: Klucel (hydroxypropylcellulose) (HPC).
[4] abbreviates: dose: 200.0 mg/kg/injection, schedule: Q01DX001 (ip), vehicle: carboxymethylcellulose (CMC).
Where [5] appears, read: dose: 200.0 mg/kg/injection, schedule: Q01DX001 (ip), vehicle: saline.
Where [6] appears, read: dose: 200.0 mg/kg/injection, schedule: Q01DX009 (ip), vehicle: Klucel (hydroxypropylcellulose) (HPC).
Where [7] appears, read: dose: 400.0 mg/kg/injection, schedule: Q01DX001 (ip), vehicle: carboxymethylcellulose (CMC).
The mark [8] stands for this setting: dose: 400.0 mg/kg/injection, schedule: Q01DX009 (ip), vehicle: Klucel (hydroxypropylcellulose) (HPC).
Setting [9] is: dose: 100.0 mg/kg/injection, schedule: Q04DX003 (ip), vehicle: Klucel (hydroxypropylcellulose) (HPC).
[10] abbreviates: dose: 200.0 mg/kg/injection, schedule: Q04DX003 (ip), vehicle: Klucel (hydroxypropylcellulose) (HPC).
[11] abbreviates: dose: 100.0 mg/kg/injection, schedule: Q04DX002 (ip), vehicle: Klucel (hydroxypropylcellulose) (HPC).
[12] abbreviates: dose: 200.0 mg/kg/injection, schedule: Q04DX002 (ip), vehicle: Klucel (hydroxypropylcellulose) (HPC).
The mark [13] stands for this setting: dose: 400.0 mg/kg/injection, schedule: Q04DX002 (ip), vehicle: Klucel (hydroxypropylcellulose) (HPC).

Where “and” joins values, the source holds several entries; their conditions need not be identical. Equal entries are not always repeated. Inconclusive results and toxic doses are left out.

Take `Cc1c(O)ccc(=O)n1O`: the T/C was 97 % of control (dose: 10.4 mg/kg/injection, schedule: Q03HX024 (ip), vehicle: Klucel (hydroxypropylcellulose) (HPC)); 107 % of control (dose: 12.0 mg/kg/injection, schedule: Q01DX009 (ip), vehicle: Klucel (hydroxypropylcellulose) (HPC)); 96 % of control (dose: 15.6 mg/kg/injection, schedule: Q03HX024 (ip), vehicle: Klucel (hydroxypropylcellulose) (HPC)); 93 % of control (dose: 22.8 mg/kg/injection, schedule: Q03HX024 (ip), vehicle: Klucel (hydroxypropylcellulose) (HPC)); 102 % of control (dose: 24.0 mg/kg/injection, schedule: Q01DX009 (ip), vehicle: Klucel (hydroxypropylcellulose) (HPC)); 98 % of control (dose: 34.8 mg/kg/injection, schedule: Q03HX024 (ip), vehicle: Klucel (hydroxypropylcellulose) (HPC)). The T/C was 107 % of control (dose: 48.0 mg/kg/injection, schedule: Q01DX009 (ip), vehicle: Klucel (hydroxypropylcellulose) (HPC)); 109 % of control (dose: 49.0 mg/kg/injection, schedule: Q01DX Z (ip), vehicle: carboxymethylcellulose (CMC)); 100 % of control and 110 % of control (dose: 49.0 mg/kg/injection, schedule: Q01DX Z (ip), vehicle: methylcellulose (MC)); 103 % of control (dose: 52.0 mg/kg/injection, schedule: Q01DX009 (ip), vehicle: Klucel (hydroxypropylcellulose) (HPC)); 100 % of control and 105 % of control (dose: 52.0 mg/kg/injection, schedule: Q03HX024 (ip), vehicle: Klucel (hydroxypropylcellulose) (HPC)); 92 % of control (dose: 62.0 mg/kg/injection, schedule: Q03HX024 (ip), vehicle: saline with Tween-80). Further, the T/C is 111 % of control (dose: 73.0 mg/kg/injection, schedule: Q01DX Z (ip), vehicle: carboxymethylcellulose (CMC)); 93 % of control (dose: 73.0 mg/kg/injection, schedule: Q01DX Z (ip), vehicle: methylcellulose (MC)); 106 % of control (dose: 89.0 mg/kg/injection, schedule: Q01DX001 (ip), vehicle: carboxymethylcellulose (CMC)); 100 % of control (dose: 96.0 mg/kg/injection, schedule: Q03HX024 (ip), vehicle: Klucel (hydroxypropylcellulose) (HPC)); 113 % of control under setting [1]; 112 % of control under setting [2]. The T/C was 115 % of control under setting [3]; 108 % of control (dose: 100.0 mg/kg/injection, schedule: Q04DX003 (ip), vehicle: acetone); 103 % of control (dose: 104.0 mg/kg/injection, schedule: Q01DX001 (ip), vehicle: Klucel (hydroxypropylcellulose) (HPC)); 95 % of control (dose: 104.0 mg/kg/injection, schedule: Q04DX003 (ip), vehicle: Klucel (hydroxypropylcellulose) (HPC)); 151 % of control (dose: 110.0 mg/kg/injection, schedule: Q01DX Z (ip), vehicle: carboxymethylcellulose (CMC)); 94 % of control (dose: 110.0 mg/kg/injection, schedule: Q01DX Z (ip), vehicle: methylcellulose (MC)). Further, the T/C was 102 % of control (dose: 110.0 mg/kg/injection, schedule: Q01DX Z (ip), vehicle: saline); 102 % of control (dose: 125.0 mg/kg/injection, schedule: Q03HX024 (ip), vehicle: saline with Tween-80); 97 % of control (dose: 156.0 mg/kg/injection, schedule: Q01DX001 (ip), vehicle: Klucel (hydroxypropylcellulose) (HPC)); 103 % of control (dose: 156.0 mg/kg/injection, schedule: Q04DX003 (ip), vehicle: Klucel (hydroxypropylcellulose) (HPC)); 152 % of control (dose: 165.0 mg/kg/injection, schedule: Q01DX Z (ip), vehicle: carboxymethylcellulose (CMC)); 122 % of control (dose: 165.0 mg/kg/injection, schedule: Q01DX Z (ip), vehicle: methylcellulose (MC)). Moreover, the T/C runs as follows: (dose: 165.0 mg/kg/injection, schedule: Q01DX Z (ip), vehicle: saline) 104 % of control; under setting [4], 112 % of control; under setting [5], 107 % of control; under setting [6], 108 % of control; (dose: 200.0 mg/kg/injection, schedule: Q04DX003 (ip), vehicle: acetone) 107 % of control; (dose: 228.0 mg/kg/injection, schedule: Q01DX001 (ip), vehicle: Klucel (hydroxypropylcellulose) (HPC)) 101 % of control. Moreover, the T/C is 98 % of control (dose: 228.0 mg/kg/injection, schedule: Q04DX003 (ip), vehicle: Klucel (hydroxypropylcellulose) (HPC)); 112 % of control (dose: 300.0 mg/kg/injection, schedule: Q01DX001 (ip), vehicle: carboxymethylcellulose (CMC)); 108 % of control (dose: 348.0 mg/kg/injection, schedule: Q01DX001 (ip), vehicle: Klucel (hydroxypropylcellulose) (HPC)); 104 % of control (dose: 348.0 mg/kg/injection, schedule: Q04DX003 (ip), vehicle: Klucel (hydroxypropylcellulose) (HPC)); 111 % of control under setting [7]; 104 % of control (dose: 400.0 mg/kg/injection, schedule: Q01DX001 (ip), vehicle: saline). The T/C reads like this: under setting [8], 104 % of control; (dose: 400.0 mg/kg/injection, schedule: Q04DX003 (ip), vehicle: acetone) 103 % of control; (dose: 520.0 mg/kg/injection, schedule: Q01DX001 (ip), vehicle: Klucel (hydroxypropylcellulose) (HPC)) 106 % of control.

As for `COC(=O)c1cc(-c2ccccc2)[nH]c1-c1ccc2ccccc2n1`, the T/C is, setting by setting: (dose: 100.0 mg/kg/injection, schedule: Q01DX001 (ip), vehicle: steriod suspending solution) 100 % of control; (dose: 200.0 mg/kg/injection, schedule: Q01DX001 (ip), vehicle: steriod suspending solution) 100 % of control; (dose: 400.0 mg/kg/injection, schedule: Q01DX001 (ip), vehicle: steriod suspending solution) 94 % of control.

For `CC(CS(=O)(=O)O)N1CCN(CCO)CC1` (stereo not drawn), the T/C runs as follows: (dose: 100.0 mg/kg/injection, schedule: Q01DX009 (ip), vehicle: saline) 101 % of control; (dose: 100.0 mg/kg/injection, schedule: Q04DX003 (ip), vehicle: saline) 108 % of control; (dose: 200.0 mg/kg/injection, schedule: Q01DX009 (ip), vehicle: saline) 96 % of control; (dose: 200.0 mg/kg/injection, schedule: Q04DX003 (ip), vehicle: saline) 103 % of control; (dose: 400.0 mg/kg/injection, schedule: Q01DX009 (ip), vehicle: saline) 96 % of control; (dose: 400.0 mg/kg/injection, schedule: Q04DX003 (ip), vehicle: saline) 94 % of control.

`Cc1ccc(S(=O)(=O)Oc2ccccc2NC(=O)c2ccccc2)cc1`: the T/C runs as follows: (dose: 50.0 mg/kg/injection, schedule: Q01DX009 (ip), vehicle: saline with Tween-80) 96 % of control; (dose: 100.0 mg/kg/injection, schedule: Q01DX009 (ip), vehicle: saline with Tween-80) 96 % of control.

`Nc1cccc(OCc2cccc([N+](=O)[O-])c2)c1`: the T/C is 101 % of control under setting [1], 90 % of control under setting [4] and 86 % of control under setting [7].

On to `Cc1cccc([N+](=O)[O-])c1-c1ccccc1C(=O)O`, for which the T/C reads like this: (dose: 50.0 mg/kg/injection, schedule: Q04DX003 (ip), vehicle: Klucel (hydroxypropylcellulose) (HPC)) 88 % of control; under setting [3], 93 % of control and 95 % of control; under setting [9], 94 % of control; under setting [6], 96 % of control and 103 % of control; under setting [10], 100 % of control; under setting [8], 97 % of control.

As to `CCCCCCCCCCCCCc1nc(N)nc(NCCCC)n1`, the T/C under setting [11] was 92 % of control, the T/C under setting [12] was 89 % of control and the T/C under setting [13] was 100 % of control.

Take `O=C(NCNC(=O)c1ccccc1)c1ccccc1`: the T/C is 100 % of control under setting [9]; 103 % of control under setting [6]; 90 % of control under setting [10]; 92 % of control under setting [8]; 103 % of control (dose: 400.0 mg/kg/injection, schedule: Q04DX003 (ip), vehicle: Klucel (hydroxypropylcellulose) (HPC)).

Regarding `Cc1cccc(C2=N/C(=C\c3ccc4c(c3)OC(O)O4)C(=O)O2)c1` (stereo not drawn), the T/C is, setting by setting: under setting [11], 97 % of control; under setting [12], 104 % of control; under setting [13], 104 % of control.

Consider `CCC(C)c1ccc(OCCO)cc1` (stereo not drawn), for which the T/C under setting [2] was 97 % of control and the T/C under setting [5] is 90 % of control.
